# Results reported in patent US20260276656A1, “GUT MICROBIOTA-RELATED METHODS FOR TREATING DEMENTIA AND AGE-DEPENDENT COGNITIVE DECLINE” (Albert-Ludwigs-Universitat Freiburg, priority 2019, published 2026).
# How the values were obtained:
# [1] = tested on: parvalbumin-positive interneurons; test: Spontaneous IPSC recordings from parvalbumin-positive interneurons in acute hippocampal slices; format: cell-based; details: bath-applied, 10 μM; acute mouse hippocampal slices, area CA1
# Experimental: Mice were anesthetized and decapitated, after which the brain was quickly removed and placed into oxygenated, ice-cold, high-sucrose artificial cerebrospinal fluid (hsACSF), containing (in mM): 150 sucrose, 50 NaCl, 25 NaHCO3, 10 dextrose, 2.5 KCl, 1 NaH2PO4·H2O, 0.5 CaCl2), and 7 MgCl2. After 2 min in hsACSF, the brain was blocked, glued to the stage of a Vibratome (VTS1000; Leica, Bannockburn, IL), and cut into 300-μm horizontal brain slices containing hippocampus. Slices were then placed in a chamber containing ACSF (in mM: 124 NaCl, 3 KCl, 1.25 NaH2PO4·H2O, 2 MgSO4·7H2O, 26 NaHCO3, 10 dextrose, and 2 CaCl2)). […]
# For recording, slices were placed in a submerged recording chamber (Warner Instruments, Hamden, CT) with oxygenated ACSF heated to 32° C. and flowing at 2-4 ml/min. […] Data were obtained using an Axopatch 1D amplifier (Axon Instruments, Foster City, CA); data were digitized at 10 kHz and recorded using a Digidata 1320A and pClamp 8.2 software (Molecular Devices, Sunnyvale, CA). […] After obtaining a stable voltage-clamp recording from a CA1 interneuron, the recording was switched to current-clamp mode and injected steps of hyperpolarizing and depolarizing current were used to determine the class of cell being recorded using published firing patterns and action potential (AP) properties (Butt et al., 2005; Flames and Marin, 2005). […]
# C57BL/6J mice = test: T-maze spontaneous alternation test (spatial working memory); format: in vivo, mouse; details: for spatial working memory (T maze test): systemic (intraperitoneal) injection, FIG. 11 left; for T maze performance: 5 mg/kg i.p. 1 h before
# Experimental: In order to acutely deplete the gut microbiota, 15-16 months old SPF males were treated via oral gavage with a mixture of antibiotics (ABX), containing Cefoxitin (Santa Cruz Biotechnology), Gentamicin (Sigma-Aldrich) Metronidazole (Sigma-Aldrich), and Vancomycin (Hikma-pharma), each 10 mg/kg in sterile 1×PBS, for three consecutive days. On the fourth day, the mice were treated with one dose of Clindamycin hydrochloride (33.3 mg/kg) (Sigma-Aldrich). Fecal microbiota transplantations (FMTs) were started 24 h later. To deplete csf1-dependent cells in vivo, including microglia, mice were provided with CSF1R-inhibitor PLX5622 (Plexxicon Inc.) mixed into AIN-76A standard chow at 1200 mg/kg (Research Diets Inc.) ad libitum. Respective controls received AIN-76A standard chow. Mice were injected with 5 mg/kg δ-valerobetaine (MCAT, Germany) 1 h before behavioral testing.
# For microbiota depletion studies, SPF mice were treated with 1 mg/ml of ampicillin (Auromedics), neomycin sulfate (Fisher), streptomycin (Sigma) and 0.5 mg/ml of vancomycin (Sagent) in the drinking water for 4-5 weeks (Khosravi et al., 2014). These mice were recolonized via FMT, which was achieved by oral gavage of a faecal slurry. Recipient mice had the food removed from the cage for 2 h prior to FMT. The faecal slurry was obtained by pooling faecal pellets from 8-14 donor mice. The pellets were weighed and resuspended by vortexing for 1 min in 1 mL PBS per 300 mg of faeces. After pelleting larger particles by centrifugation at 500×g for 5 min, the supernatant was collected for FMT. Each recipient mouse received 150 μl of faecal slurry by oral gavage. The remaining slurry was stored at −80° C. for 16S rRNA sequencing. Following FMT, the cages of recipient mice were replenished with dirty bedding and fresh faecal pellets from donor mice once and twice a week, respectively. Faecal pellets for 16S rRNA sequencing were collected the day before FMT and at the end of the experiment and were stored at −80° C. for DNA extraction. For re-colonization of ABX treated mice, FMTs from 8 weeks old or 15-16 months old males were undergone. Fresh fecal pellets are collected under a sterile hood and directly thoroughly homogenized in 0.1% L-Cysteine hydrochloride monohydrate in 1×PBS in order to maintain anaerobic microbes. The homogenates were spun down for 1 min, 200 g at 4° C. and the turbid supernatant was used to orally and rectally gavage the recipient mice. The FMT was performed twice 72 h apart.
# NNN-trimethyl-5-aminovalerate was dissolved in 0.9% NaCl and administered i.p. at a dose of 200 mg/kg in a volume of 10 ml/kg. As control the vehicle NaCl was injected.
# Mice were tested 40 min after drug- or vehicle injection or 4 weeks after FMT. We first performed the training run for the Novel-object recognition test, followed by the T maze test and then 6 h after the training session mice were tested in the Novel object recognition test. Spatial working memory was tested using the continuous spontaneous alternation task in a T-maze as described previously (Spowart-Manning, L. et al). Briefly, animals were set into the base of a T-maze and allowed to explore a randomly assigned T-maze arm until it returned to the base arm. Subsequently, the blocked arm was opened, and the animal was allowed to explore the complete maze. Once one arm of the T-maze was entered, the other arm was blocked until the animal returned to the base arm. Then, the exit of the base arm was blocked for 5 s and the animal was allowed to explore the maze again. The experiment was stopped after 14 free choice arm entries. Arm entries were scored as alternations if an animal chose the opposing arm compared to the arm visited immediately prior to the scored instance. The Novel Object Recognition (NOR) task was applied to evaluate recognition memory as published previously (Antunes, M. & Biala, G. et al). During the habituation phase, each mouse was allowed to explore two similar objects within a total exploration time of 20 s. […]
smiles,measurement,setting,value
"C[N+](C)(C)CCCCC(=O)[O-] [NNN-trimethyl-5-aminovalerate, 5-(trimethylammonio) pentanoate]",frequencies of spontaneous IPSCs (spIPSCs) in parvalbumin-positive interneurons,[1],increase
same,T maze: improvement in learning and memory after FMT from young mice,"C57BL/6J mice; old mice (15-16 months) +ABX+yFMT, 5 mg/kg i.p. 1 h before testing, FIG. 10F",abolished
same,spatial working memory (T maze test),C57BL/6J mice; old mice (20-24-month-old),no additional impairing effects
same,T maze performance,"C57BL/6J mice; old mice that had received gut microbiota from old mice (old+ABX+oFMT), FIG. 10F",no additional deteriorating effect
same,T maze performance,"C57BL/6J mice; young adult mice (8 weeks), versus vehicle, FIG. 10B",significantly worse
same,spatial working memory (T maze test),"C57BL/6J mice; young mice (2-month-old), PBS control",reduced
